Reference: patent US7419969B2 (Bristol-Myers Squibb Company, priority 2004, dated 2008)

What follows are molecules tested against T1, HIV-integrase (Human immunodeficiency virus type 1 group M subtype B, UniProt P04585) (assay: in-vitro activity against HIV-integrase (HIV Integrase Inhibition, SPA bead assay)). Conditions: Table 1; recombinant integrase, activity class.
T1 construct: Recombinant integrase (0.26 ng) was incubated with the beads
Assay type: biochemical
In short: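 Recombinant integrase (0.26 ng) pre-bound for 90 min at 37 °C to biotinylated substrate DNA on streptavidin SPA beads, then washed. Inhibitors added with 33P-labelled target DNA; reaction stopped with 10 mM EDTA. Scintillation CPM taken as integration signal.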

Compound	IC50 [nM]
O=C(NCc1ccc(F)cc1)c1nc2n(c(=O)c1O)CCCC21CCC1 [Example 66, N-[(4-fluorophenyl)methyl]-7′,8′-dihydro-3′-hydroxy-4′-oxo-spiro[cyclobutane-1,9′(6′H)-[4H]pyrido[1,2-α]pyrimidine]-2′-carboxamide]	1 to 10
O=C(NCc1ccc(F)cc1-n1cncn1)c1nc2n(c(=O)c1O)CCOC21CCOCC1 [Example 41]	1 to 10
O=C(NCc1cc(F)ccc1-n1cncn1)c1nc2n(c(=O)c1O)CCCC21CCC1 [Example 77, N-[[5-fluoro-2-(1H-1,2,4-triazol-1-yl)phenyl]methyl]-7′,8′-dihydro-3′-hydroxy-4′-oxo-spiro[cyclobutane-1,9′(6′H)-[4H]pyrido[1,2-α]pyrimidine]-2′-carboxamide]	1 to 10
CN(C)S(=O)(=O)c1cc(F)ccc1CNC(=O)c1nc2n(c(=O)c1O)CCCOC21CCC1 [Example 61]	10 to 100
O=C(NCc1ccc(Cl)cc1)c1nc2n(c(=O)c1O)CCOC21CCCC1 [Example 20, N-[(4-chlorophenyl)methyl]-6′,7′-dihydro-3′-hydroxy-4′-oxo-spiro[cyclopentane-1,9′(4′H)-pyrimido[2,1-c][1,4]oxazine]-2′-carboxamide]	1 to 10
O=C(NCc1ccc(F)cc1-n1cncn1)c1nc2n(c(=O)c1O)CCCC21CCCC1 [Example 4, N-[[4-fluoro-2-(1H-1,2,4-triazol-1-yl)phenyl]methyl]-7′,8′-dihydro-3′-hydroxy-4′-oxo-spiro[cyclopentane-1,9′(6′H)-[4H]pyrido[1,2-α]pyrimidine]-2′-carboxamide]	1 to 10
O=C(NCc1ccccc1-n1cncn1)c1nc2n(c(=O)c1O)CCOC21CCCC1 [Example 33, 6′,7′-dihydro-3′-hydroxy-4′-oxo-N-[[2-(1H-1,2,4-triazol-1-yl)phenyl]methyl]-spiro[cyclopentane-1,9′(4′H)-pyrimido[2,1-c][1,4]oxazine]-2′-carboxamide]	1 to 10
CN(C)S(=O)(=O)c1cc(F)ccc1CNC(=O)c1nc2n(c(=O)c1O)CCCC21CCCC1 [Example 10, N-[[2-[(dimethylamino)sulfonyl]-4-fluorophenyl]methyl]-7′,8′-dihydro-3′-hydroxy-4′-oxo-spiro[cyclopentane-1,9′(6′H)-[4H]pyrido[1,2-α]pyrimidine]-2′-carboxamide]	1 to 10

Same assay, conditions: Table 1a; recombinant integrase, activity class

Compound	IC50 [nM]
Cc1ncnn1-c1cc(F)ccc1CNC(=O)c1nc2n(c(=O)c1O)CCN(C)C21CCCCC1 [Example 97, Spiro[cyclohexane-1,9′(6′H)-[4H]pyrazino[1,2-a]pyrimidine]-2′-carboxamide, N-[[4-fluoro-2-(5-methyl-1H-1,2,4-triazol-1-yl)phenyl]methyl]-7′,8′-dihydro-3′-hydroxy-8′-methyl-4′-oxo-]	10 to 100
Cc1ncnn1-c1cc(F)ccc1CNC(=O)c1nc2n(c(=O)c1O)CCN(C)C21CCCC1 [Example 94, Spiro[cyclopentane-1,9′(6′H)-[4H]pyrazino[1,2-a]pyrimidine]-2′-carboxamide, N-[[4-fluoro-2-(5-methyl-1H-1,2,4-triazol-1-yl)phenyl]methyl]-7′,8′-dihydro-3′-hydroxy-8′-methyl-4′-oxo-]	10 to 100
Cc1nc(C)n(-c2cc(F)ccc2CNC(=O)c2nc3n(c(=O)c2O)CCOC32CCCC2)n1 [Example 130, Spiro[cyclopentane-1,9′(4′H)-pyrimido[2,1-c][1,4]oxazine]-2′-carboxamide, N-[[2-(3,5-dimethyl-1H-1,2,4-triazol-1-yl)-4-fluorophenyl]methyl]-6′,7′-dihydro-3′-hydroxy-4′-oxo-]	1 to 10
O=C(NCc1ccc(F)cc1N1CCC1=O)c1nc2n(c(=O)c1O)CCOC21CCC1 [Example 106, Spiro[cyclobutane-1,9′(4′H)-pyrimido[2,1-c][1,4]oxazine]-2′-carboxamide, N-[[4-fluoro-2-(2-oxo-1-azetidinyl)phenyl]methyl]-6′,7′-dihydro-3′-hydroxy-4′-oxo-]	1 to 10
